Assay results: BigSolDB 2.1

Clc1ncnc2nc[nH]c12
solubility (mole fraction)
Details	283.15 K	288.15 K	293.15 K	298.15 K	303.15 K	308.15 K	313.15 K	318.15 K	323.15 K	328.15 K
in DMAc	0.0175	0.0217	0.0267	0.0334	0.0411	0.0504	0.061	0.074	0.0893	0.107
in DMF	0.0555	0.0645	0.075	0.0871	0.0995	0.114	0.129	0.147	0.165	0.186
in ethanol	0.0087	0.0103	0.0122	0.0144	0.0168	0.0195	0.0226	0.026	0.0296	0.0338
in methanol	0.0112	0.0132	0.0153	0.0178	0.0204	0.0234	0.0268	0.0304	0.0345	0.0389
in water	0.00051	0.000555	0.000601	0.000658	0.000709	0.000761	0.000815	0.000873	0.000935	0.000994
